Experimental data reported in PMC7497679, “Structure-based design, synthesis, and evaluation of the biological activity of novel phosphoroorganic small molecule IAP antagonists” (Investigational New Drugs, 2020).

Experiments:
[1] = molecular target: T1, XIAP BIR3 domain (Homo sapiens, UniProt P98170); assay: Fluorescence polarization inhibition (competition) assay; assay type: binding; conditions: XIAP BIR3 50 nM, fluorescent probe 4 2 nM; read-out: EC50
T1 construct: fluorescent probe 4 and the XIAP BIR3 domain (Sino Biological, Beijing, China) were used for all measurements; purchased Sino Biological, Beijing, China
T1 sequence (P98170 252-356 limits assumed): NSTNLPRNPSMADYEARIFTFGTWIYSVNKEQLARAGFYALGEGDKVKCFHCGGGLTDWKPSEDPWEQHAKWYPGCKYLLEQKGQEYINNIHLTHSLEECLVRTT
Procedure: The fluorescence polarization assay was performed at r.t. in Corning 384-well black, polystyrene flat bottom plates (Corning, NY, USA) on a Synergy H4 Hybrid Reader (BioTek, Bad Friedrichshall, Germany). For fluorescence polarization measurements, (milipolarization units, mP) 484/20 nm excitation and 528/20 nm emission filters were selected. Phosphate buffer (pH 7.5) supplemented with γ-globulin (100 µg/mL) and NaN3 (0.02% w/v), fluorescent probe 4 and the XIAP BIR3 domain (Sino Biological, Beijing, China) were used for all measurements. All experiments were performed in duplicate. The obtained fluorescence polarization assay data were analyzed with Prism 5.0 Software (GraphPad Software, San Diego, ca.).
After a 15 min incubation at r.t., fluorescent probe 4 (2 nM) was added. The values were measured 30 min after the moment the probe was added. The assay was performed in phosphate buffer with a final DMSO concentration of 1.4% (v/v). […] In order to evaluate the quality and precision of the performed screening assay, we determined the Z´ factor as described by Zhang et al.. The obtained fluorescence polarization values were used to determine the percent inhibition, which was plotted as a function of the protein concentration. The EC50 and Ki values were calculated with GraphPad software (log(agonist) vs. response (variable slope) model) in combination with the web tool developed by Nikolovska-Coleska et al..
Fluorescence polarization inhibition assay and data analysis for 41m and 42m compounds was performed as described in the Material and Methods section of the manuscript. Briefly, 50 nM solution of the BIR3 XIAP protein in polarization buffer was added into phosphoroorganic compound solution (from 50 μM to 0.0537 nM). After 15 min incubation at r.t. the fluorescent probe 4 (2 nM) was added.
The values were read after 30 minutes from the moment the probe was added. The obtained fluorescence polarization values were used to determine the percentage of inhibition which was plotted as a function of the protein concentration (Supplementary Figure S4).
(1 picture or pasted object on this page, not shown here)

[2] = tested on: A549; assay: Antiproliferative activity, SRB method; assay type: cell-based, human; conditions: Homo sapiens, A549, 10 µM, 72 h, read-out: mean proliferation inhibition at highest concentration used, A549
Excerpt: (§1) MDA-MB-231 (human breast cancer), MCF10A (human, nontumorigenic mammary gland epithelial cells), A549 (human nonsmall-cell lung cancer), UMUC-3 (human bladder cancer) and LoVo (human colon cancer) cell lines were obtained from the American Type Culture Collection (ATCC; Rockville, Maryland, USA). The MCF-7 cell line (human breast cancer) was obtained from the European Collection of Cell Cultures (ECACC; Salisbury, UK). All cell lines were maintained at the Hirszfeld Institute of Immunology and Experimental Therapy (HIIET), Wrocław, Poland. MDA-MB-231 cells were cultured in RPMI1640 medium (Thermo Fisher Scientific, Warszawa, Poland) supplemented with 2 mM L-glutamine, 1 mM sodium pyruvate, and 10% fetal bovine serum (all from Sigma-Aldrich, Poznań, Poland). The MCF10A cell line was cultured in Ham’s F12 medium with glutamine (Corning) supplemented with 5% (v/v) fetal bovine serum (FBS), 5% (v/v) horse serum, 10 µg/mL insulin, 0.05 µg/mL cholera toxin, 0.5 µg/mL hydrocortisone, and 20 ng/mL hEGF (all from Sigma-Aldrich). A549 and LoVo cells were cultured in a 1:1 (v/v) mixture of RPMI1640 and Opti-MEM (both from HIIET) supplemented with 5% (v/v) FBS and 2 mM L-glutamine. The UMUC-3 cell line was cultured in high glucose DMEM (Thermo Fisher Scientific) supplemented with 10% FBS and 2 mM Lglutamine. The MCF-7 line was cultured in Eagle’s minimal essential medium (EMEM; Thermo Fisher Scientific) supplemented with 10% (v/v) FBS, 2 mM L-glutamine, 1% (v/v) nonessential amino acids, and 8 µg/mL insulin (all from Sigma-Aldrich). All culture media contained 100 µg/mL streptomycin (Sigma-Aldrich) and 100 U/mL penicillin (Polfa Tarchomin SA, Warszawa, Poland). The cells were grown at 37 °C in a humid atmosphere saturated with 5% CO2.
(§2) Antiproliferative activity was assessed in six cell lines utilizing the sulforhodamine B (SRB) method. Briefly, cells were seeded in 96-well plates (Sarstedt, Warszawa, Poland) at a density of 5 × 10^3 cells/well, and after overnight incubation, the cells were exposed to compounds at various concentrations. After 72 h, the plates were fixed with 50% (v/v) TCA (all from Sigma-Aldrich), washed with tap water, and the precipitated proteins were labeled with 0.1% (w/v) SRB solution in 1% (v/v) AcOH. Next, the plates were washed with 1% (v/v) AcOH, and the remaining SRB dye was solubilized with 10 mM unbuffered TRIS solution. The absorbance was measured using a Biotek Hybrid H4 reader (BioTek Instruments, VT, USA) at 540 nm. Crude results were analyzed using a previously described method, and the results are expressed as the IC50 (compound concentration that reduced cell growth by 50%) compared to the vehicletreated control (0.1% (v/v) DMSO). The samples were analyzed in triplicate, and each experiment was repeated at least three times.

[3] = tested on: LoVo; assay: Antiproliferative activity, SRB method; assay type: cell-based, human; conditions: Homo sapiens, LoVo, 10 µM, 72 h, read-out: mean proliferation inhibition at highest concentration used, LoVo
Excerpt: as §1, §2

[4] = tested on: MCF-10A; assay: Antiproliferative activity, SRB method; assay type: cell-based, human; conditions: Homo sapiens, MCF-10A, 10 µM, 72 h, read-out: mean proliferation inhibition at highest concentration used, MCF-10A
Excerpt: as §1, §2

[5] = tested on: MCF-7; assay: Antiproliferative activity, SRB method; assay type: cell-based, human; conditions: Homo sapiens, MCF7, 10 µM, 72 h, read-out: mean proliferation inhibition at highest concentration used, MCF-7
Excerpt: as §1, §2

[6] = tested on: MDA-MB-231; assay: Antiproliferative activity, SRB method; assay type: cell-based, human; conditions: Homo sapiens, MDA-MB-231, 72 h, read-out: IC50 ± SD (n = 3) MDA-MB-231
Excerpt: as §1, §2

[7] = tested on: UMUC-3; assay: Antiproliferative activity, SRB method; assay type: cell-based, human; conditions: Homo sapiens, UMUC3, 10 µM, 72 h, read-out: mean proliferation inhibition at highest concentration used, UMUC-3
Excerpt: as §1, §2

CN[C@@H](C)C(=O)N[C@H](C(=O)N1CCC[C@H]1C(=O)Nc1snnc1-c1ccccc1)C1CCCCC1 [GDC-0152, reference compound]
EC50 [1]: 10 nM
inhibition at 10 µM [2]: 13%
inhibition at 10 µM [3]: 9%
inhibition at 10 µM [4]: 1%
inhibition at 10 µM [5]: 18%
IC50 [6]: 880 ± 210 nM
inhibition at 10 µM [7]: 13%
